Assays:
Assay type in all cases: functional
[1] = system: Saccharomyces cerevisiae; test: MMV: Growth assays were conducted using the prototrophic S. cerevisiae strain JHY222. Each MMV compound (0.1 mM) was tested in minimal media containing ethanol and glycerol as carbon sources (Yeast Nitrogen Base, Ethanol, Glycerol; YNBEG). The growth rate in the presence of each MMV compound was calculated as follows: (i) the first 10 OD readings were averaged and subtracted from all OD readings of the corresponding curve to set the baseline of the growth curve to zero, and (ii) the area under the curve (AUC) was then calculated as the sum of all OD readings. […] A relative growth value was calculated as follows: AUC(DRUG) - AUC(DMSO)/AUC(DMSO); where AUC(DMSO) represents growth measured in a DMSO control well that was on the same microtiter plate of the drug-treated culture.
[2] = system: Saccharomyces cerevisiae; test: (§1) MMV: Growth assays were conducted using the prototrophic S. cerevisiae strain JHY222. Each MMV compound (0.1 mM) was tested in rich media containing dextrose as a carbon source (Yeast Extract, Peptone, Dextrose; YPD). The growth rate in the presence of each MMV compound was calculated as follows: (i) the first 10 OD readings were averaged and subtracted from all OD readings of the corresponding curve to set the baseline of the growth curve to zero, and (ii) the area under the curve (AUC) was then calculated as the sum of all OD readings. […] A relative growth value was calculated as follows: AUC(DRUG) - AUC(DMSO)/AUC(DMSO); where AUC(DMSO) represents growth measured in a DMSO control well that was on the same microtiter plate of the drug-treated culture.
[3] = system: Saccharomyces cerevisiae; test: as §1, with “minimal” for “rich”, “Nitrogen Base,” for “Extract, Peptone,”, “YNBD).” for “YPD).”

Row | Compound | Relative Growth [1] | Relative Growth [2] | Relative Growth [3]
1 | COc1ccc(N2CCN(C(CNC(=O)C3CCCCC3)c3ccc4c(c3)OCO4)CC2)cc1 (configuration not stated) | -0.124 | -0.0299 | -0.0986
2 | Cc1[nH]c(-c2ccc(F)cc2)cc1C(=O)NC1CCN(Cc2ccccc2)CC1 | 0.2181 | 0.0962 | 0.023
3 | COc1ccc(CCN2CCC(CN(C)Cc3cnn(-c4ccccc4)c3)CC2)cc1 | -0.844 | 0.0613 | -0.2117
4 | COCCNC(=O)c1ccc(OC2CCN(Cc3ccc(F)c(F)c3)CC2)c(Cl)c1 | 0.0235 | 0.1615 | -0.0136
5 | O=C(NC1CCCC1)c1ccc(N2CCC(NCc3cccc(C(F)(F)F)c3)CC2)cc1 | -0.7428 | 0.09 | -0.054
6 | CCOc1cc(Br)c(C(C)NC(=O)c2cccc(OC)c2)cc1OCC (configuration not stated) | -0.5924 | 0.0654 | -0.0511
7 | CC(C)=CCN1CCC(C(=O)Nc2ccc(-c3nc4ccccc4[nH]3)cc2)CC1 | 0.1138 | -0.0484 | 0.0091
8 | CCN(CC)CCn1c(=N)n(CC(O)c2ccc(Cl)c(Cl)c2)c2ccccc21.Cl (configuration not stated) | 0.1274 | -0.0663 | 0.0285
9 | CCOc1cc(Cl)c(C(C)NC(=O)c2cccc(OC)c2)cc1OCC (configuration not stated) | -0.0623 | -0.0293 | -0.1186
10 | O=C(CCc1ccco1)NC1CCN(CC2(c3ccc(Cl)cc3)CCC2)CC1 | 0.0483 | -0.0017 | 0.003
11 | FC(F)(F)c1cccc(Nc2nc(-c3ccccc3)nc3ncccc23)c1 | -0.0611 | 0.1402 | -0.0599
12 | CCN1CCN(c2cc(C)c3cc(NC(=O)c4ccc(OC)c(OC)c4)ccc3n2)CC1 | -0.0282 | -0.0203 | -0.0518
13 | Cc1ccc(Cl)cc1N1CCN(CCCNC(=O)C2CCN(c3nc4ccccc4[nH]3)CC2)CC1 | 0.0403 | -0.0122 | 0.0248
14 | COCCN(C(=O)Cc1cccs1)C(C(=O)NCc1ccc(OC)cc1)c1ccc(C(C)C)cc1 (configuration not stated) | 0.2007 | 0.0044 | 0.0051
15 | Cc1ccc(CSCc2ccc(C(=O)NC3CC3)o2)cc1 | -0.1982 | 0.0613 | -0.0643
16 | O=C(Nc1ccc(CN2CCOCC2)cc1)c1ccc(-c2ccc(Br)cc2)o1 | -0.1653 | -0.0599 | -0.3783
17 | CC(=O)NCCc1nc2ccccc2n1Cc1ccc(C(C)C)cc1 | 0.1937 | 0.0716 | -0.0851

Row | Compound | Relative Growth [1] | Relative Growth [2] | Relative Growth [3]
18 | CN(C)c1ccc(-c2nc3cc(N)ccc3[nH]2)cc1 | 0.1829 | 0.2129 | -0.0068
19 | O=C(CSc1ccc2nnc(-c3cccc(F)c3)n2n1)Nc1ccc2c(c1)OCO2 | -0.3285 | -0.0335 | -0.0662
20 | CC(C)(C)C(=O)Nc1ccc(C(=O)Nc2cccc(-c3nc4ccccc4[nH]3)c2)cc1 | -0.4785 | 0.0628 | -0.1639
21 | COc1cccc(-c2nn(C)c3sc(C(=O)NCCN4CCN(c5ccccc5F)CC4)cc23)c1 | 0.0691 | 0.1401 | -0.0156
22 | O=C(Nc1ccc(Cl)cc1C(=O)Nc1ccncc1)c1ccc(Cl)cc1Cl | -0.1824 | 0.0512 | 0.0109
23 | CCOc1cccc2sc(N(Cc3cccnc3)C(=O)C3CCCCC3)nc12 | -0.3394 | -0.0327 | -0.0544
24 | CCN(CC)c1cc(C)c2cc(NC(=O)c3cccc(OC)c3)ccc2n1 | 0.0148 | 0.0048 | -0.0149
25 | O=C(Nc1ccccc1O)c1ccc(-c2ccc(Cl)cc2Cl)o1 | -0.098 | 0.0802 | 0.0136
26 | CC(C)OCc1cc(CN2CCN(c3cccc(Cl)c3)CC2)c(O)c2ncccc12 | -0.1438 | -1.0115 | -0.1654
27 | O=C(Nc1nc(-c2ccccn2)cs1)c1ccccc1Br | 0.1503 | 0.0205 | -0.0666
28 | CC(O)(c1ccc(Cl)cc1)C(CN1CCCCC1)c1ccccc1.Cl (configuration not stated) | 0.0803 | 0.0259 | -0.0009
29 | CCCCc1ccc(NS(=O)(=O)c2cc3c4c(c2)CCN4C(=O)CC3)cc1 | 0.0701 | -0.0323 | -0.0346
30 | CCOc1ccc(-c2nc(NC(=O)c3cccc(S(C)(=O)=O)c3)sc2C)cc1 | 0.1015 | 0.0098 | 0.0499
31 | COc1ccccc1N1CCN(C(CNS(=O)(=O)c2ccc(Cl)cc2)c2cccnc2)CC1 (configuration not stated) | -0.6721 | -0.173 | -0.1378
32 | CCOc1c(Cl)cc(CNC(C)C(O)c2ccccc2)cc1OC (configuration not stated) | 0.1383 | -0.0562 | -0.05
33 | COc1ccc(C2Sc3ccccc3N=C3C2=C(O)c2ccccc23)cc1 (configuration not stated) | 0.0327 | 0.0982 | -0.0473
34 | O=C(NCC1Cc2cccc(-c3ccncc3)c2O1)c1csc2c1CCCC2 (configuration not stated) | 0.1029 | 0.0158 | 0.0203
